In patent US8445461B2, “Pharmaceutical composition for meniere's disease” (Setsuko Takeda, priority 2007, dated 2013):
Values joined by “and” are separate entries in the source; they are usually repeats but may differ in a detail not shown here. Equal entries are not always repeated. Where two headings read alike, the source gives them in different places. Values belong to the compound of their own block, whether it stands above or below them.

Columns and labels:
[1] = system: guinea pigs of normal Prayer's reflex; conditions: cited from earlier work; for Plasma AVP: continuous subcutaneous administration
[2] = system: experimental endolymphatic hydrops; assay: Endolymphatic hydrops decompression effect: IR-L, IR-S and regression lines in the operated ear; assay type: in vivo, guinea pigs; conditions: active agent 2.8 g/kg oral, alone or with additive; for Regression line IR-S vs IR-L: Y-intercept / Regression line IR-S vs IR-L: slope: operated ears, 3 hours after; for IR-L (%) increase ratio of the length of Reissner's membrane / IR-S (%) increase ratio of the cross-sectional area of the scala media: operated side, perfusion 3 hours after
Procedure: The endolymphatic hydrops-decompression effect of saccharides or sugar alcohols was evaluated by assaying as below in triplicate. Firstly, guinea pigs received the surgical obliteration of the endolymphatic sac in the left ear to prepare “experimental model animals with endolymphatic hydrops”. The surgical obliteration of the endolymphatic sac was carried out by burning the extraskeletal portion in the endolymphatic sac with a bipolar electrocoagulator. An endolymphatic sac plays an important role in the absorption of endolymphatic fluid. The inhibition of absorption of endolymphatic fluid was caused by burning the endolymphatic sac to prepare an experimental endolymphatic hydrops. Those hydrops are progressively formed. The size of hydrops becomes constant 2 weeks to month after the surgery and maintained for several months. In detail, see Non-patent Reference 8 for the surgery.
After 1 month, they were divided into 3 groups: Group 2-1 (groups 1-6), 60 animals; Group 2-2 (groups 7-10), 40 animals; and Group 2-3 (groups 11-20), […]. The animals in Group 2-1 received saccharides or sugar alcohols alone (Reference Example 5). The animals in Group 2-2 orally received saccharides or sugar alcohols added polysaccharides. The animals in Group 2-3 received other combinations of saccharides or sugar alcohols added polysaccharides. Animals were sacrificed after the oral administration and the observation and the assessment the gastrointestinal condition, and observed the morphological change of the cochlea mainly in the operated side (left side), in particular of the endolymphatic hydrops decompression effect.
I were obtained left sides of the temporal bones immediately following fixation and kept them in 10% formalin solution for 10 days or more. They were decalcified with 5% trichloroacetic acid and dehydrated with alcohol in increasing concentration, then embedded in paraffin and celloidin. The prepared blocks were cut serially in the horizontal plane. The mid-modiolar sections were stained in hematoxylin and eosin and studied under a light microscope. For the quantitative assessment of changes of the endolymphatic space, the change ratios of the length of Reissner's membrane and the cross-sectional area of the scala media in each turn were measured from the mid-modiolar sections of the cochlea.
From these parameters, the increase ratios (%) of the length of Reissner's membrane (IR-L) and the cross-sectional area (%) of the scala media (IR-S) of a total of four turns were calculated according to the equation as described below:
The increase ratio of the length of Reissner's membrane (IR-L)=100×Σ(Lx−L*x)/ΣL*x (x: first, second, third and fourth turns)
The increase ratio of the cross-section area of the scala media (IR-S)=100×Σ(Sx−S*x)/ΣS*x (x: first, second, third and fourth turns)
Since almost no difference is shown in the regression lines of each group, it cannot be understood that there is the decompression effect of erythritol alone. When endolymphatic hydrops is formed, the cross-sectional area of scala media and the length of Reissner's membrane will increase. It can be assumed from FIG. 1 that there is statistically a primary correlation between both of them in the operated side in the control group. The regression lines are; IR-S (distilled water)=4.011+1.212*IR-L (distilled water); R2=0.987, IR-S (1 hour after)=5.409+1.1*IR-L (1 hour after); R2=0.903, IR-S (2 hours after)=1.125+0.992*IR-L (2 hours after); R2=0.98, IR-S (3 hours after)=2.407+1.309*IR-L (3 hours after); R2=0.974, IR-S (6 hours after)=7.36+1.147*IR-L (6 hours after); R2=0.895, IR-S (12 hours after)=8.089+1.152*IR-L (12 hours after); R2=0.918.
The difference of decompression effect on endolymphatic hydrops depending on dose of pectin added and time-course of the decompression effect can hardly determined by comparing and analyzing the average and standard deviation of IR-L and IR-S in the operated side in each groups. […]

endolymphatic space = conditions: cited from earlier work; for Morphological change in the normal ear: glycerol 2.8 g/kg oral
[3] = system: guinea pigs excreting normal feces; assay: Antidiarrheal effect: observation of feces after oral administration of saccharides or sugar alcohols with or without polysaccharides (Example 1); assay type: in vivo
Procedure: The criteria for analyzing the conditions of feces (hardness, shape and spaces of feces in the intestine) are as shown in Table 2:
The hardness and microscopic findings of feces from the group administered with distilled water were assessed as “Normal” scoring 3, the feces having normal shape and the shape could rather easily change by pushing with fingers were assessed as “Slightly soft” scoring 2, those of which the shape had already changed or it could quite easily change by pushed with fingers were assessed as “Soft” scoring 1, and those of which the shape is muddy or watery or of no shape were assessed “Muddy” scoring 0. To be precese, there are no watery feces because of the nature of diets and thus the muddy feces correspond to watery and muddy feces in human.
Since the muddy feces comprise large content of water, they induce the high abdominal pressure and the flatulence and distension. […] In the case of gas generation, it appears that noxious symptom such as the flatulence and distension are synergistically deteriorated. Therefore, we assessed not only based on the hardness of feces, but also the size, smoothness of the surface and amount of feces.
In these experiments, I observed is the diarrhea caused by saccharides or sugar alcohols and antidiarrhreal effect of saccharides. Guinea pigs orally received saccharides or sugar alcohols, for example tetrose such as erythritol, pentose such as xylitol or xylose, hexose such as isosorbitol or the like in combination with or without polysaccharides for observation of the feces up to 6 hours after the administration.
Guinea pigs (body weight 280 to 320 g, normal feces) were divided into four groups: for Group 1-a, xylitol alone (Reference Example 1), or xylitol and xanthan gum or pectin; for Group 1-b, xylose alone (Reference Example 2), xylose and xanthan gum or pectin; for Group 1-c, erythritol alone (Reference Example 3), erythritol and pectin, erythritol and xanthan gum, or erythritol, pectin and natural aluminum silicate gel or calcium carbonate; and for Group 1-d, isosorbitol alone (Reference Example 4), or isosorbitol and xanthan gum or pectin were orally administered, respectively. The compounds are dissolved in distilled water and 8 ml/kg of said solution were administered as a single dose.
The feces were observed during 6 hours after the administration. When the animals fell into the most serious condition, the hardness and shape of the feces from said animals were assessed as the effect by saccharides or sugar alcohols in the animals.

guinea pigs = assay: Reference Example 7: erythritol or isosorbitol added jelly, conditions of feces and gastrointestinal tract; assay type: in vivo
Source text: As described hereinbefore, erythritol or isosorbitol as saccharides or sugar alcohols added jelly as a thickner were orally administered to 10 guinea pigs (280 to 350 g body weight) as shown in Table 41. The conditions of feces were observed.

[4] = active agent 1.4 g/kg oral, within 6 hours
[5] = active agent 2.1 g/kg oral, within 6 hours
[6] = active agent 2.8 g/kg oral, alone or with additive of the label
[7] = active agent 2.8 g/kg oral, alone or with additives of the label, most serious condition within 6 hours
[8] = active agent 3.5 g/kg oral, alone or with additive of the label, within 6 hours
[9] = active agent 5.6 g/kg oral, alone or with additive of the label, within 6 hours
[10] = agent 2.8 g/kg oral + Jelly 0.1 g/kg, 5 animals
[11] = agent 2.8 g/kg oral + Jelly 0.25 g/kg, 5 animals
[12] = agent 2.8 g/kg oral, no additive dosage (agent alone)
[13] = saccharide or sugar alcohol 2.8 g/kg oral, alone or with additive, feces observed for 6 hours

Compound: NC(=O)CC[C@@H]1NC(=O)[C@H](Cc2ccccc2)NC(=O)[C@H](Cc2ccc(O)cc2)NC(=O)[C@@H](N)CSSC[C@@H](C(=O)N2CCC[C@H]2C(=O)N[C@@H](CCCN=C(N)N)C(=O)NCC(N)=O)NC(=O)[C@H](CC(N)=O)NC1=O [AVP, arginine vasopressin]
Plasma AVP ([1]; AVP 0.2 mU/kg/min): 2.2 ± 0.4 pg/mL
Increase ratio (%) of the cross-sectional area of the scala media ([1]; AVP 0.2 mU/kg/min): 4.4 ± 0.7%
Plasma AVP ([1]; AVP 0.4 mU/kg/min): 3.5 ± 1.8 pg/mL
Increase ratio (%) of the cross-sectional area of the scala media ([1]; AVP 0.4 mU/kg/min): 10.4 ± 1.8%
Plasma AVP ([1]; AVP 1.0 mU/kg/min): 14.0 ± 3.9 pg/mL
Increase ratio (%) of the cross-sectional area of the scala media ([1]; AVP 1.0 mU/kg/min): 17.4 ± 7.9%
Formation of endolymphatic hydrops ([1]; AVP 1 mU/kg/minute, continuous, mini-pump subcutaneously): apparently produced endolymphatic hydrops

Compound: OCC(O)CO [Gly alone, glycerol]
Regression line IR-S vs IR-L: Y-intercept [2]: −2.455
Regression line IR-S vs IR-L: slope [2]: 0.887
IR-L (%) increase ratio of the length of Reissner's membrane [2]: 37.4 ± 31.2%
IR-S (%) increase ratio of the cross-sectional area of the scala media [2]: 31.0 ± 27.5%
Morphological change in the normal ear (endolymphatic space; 2 hours after): collapse
Morphological change in the normal ear (endolymphatic space; 6 hours after): mild hydrops
Time until exertion of effect after the oral administration (endolymphatic space): about 2 hours

Hardness of feces: Muddy (number of animals) [3, 4]: 0
Hardness of feces: Normal (number of animals) [3, 4]: 3
Hardness of feces: Slightly soft (number of animals) [3, 4]: 1
Hardness of feces: Soft (number of animals) [3, 4]: 0
Hardness of feces: Muddy (number of animals) [3, 5]: 0
Hardness of feces: Normal (number of animals) [3, 5]: 0
Hardness of feces: Slightly soft (number of animals) [3, 5]: 2
Hardness of feces: Soft (number of animals) [3, 5]: 2
Time after administration of the peak (most serious) diarrhea [3, 6]: Three to four hours after
Time after administration when diarrhea / softening of feces started [3, 6]: 2 h
Time after administration when feces recovered to (almost) normal [3, 6]: 6 h
Hardness of feces: Muddy (number of animals) [3, 7]: 1
Hardness of feces: Normal (number of animals) [3, 7]: 2
Hardness of feces: Slightly soft (number of animals) [3, 7]: 2
Hardness of feces: Soft (number of animals) [3, 7]: 2
Hardness of feces: Muddy (number of animals) [3, 8]: 3
Hardness of feces: Normal (number of animals) [3, 8]: 0
Hardness of feces: Slightly soft (number of animals) [3, 8]: 0
Hardness of feces: Soft (number of animals) [3, 8]: 1
Hardness of feces: Muddy (number of animals) [3, 9]: 3
Hardness of feces: Normal (number of animals) [3, 9]: 0
Hardness of feces: Slightly soft (number of animals) [3, 9]: 0
Hardness of feces: Soft (number of animals) [3, 9]: 0
Hardness of feces: Muddy (number of animals) (guinea pigs; [10]): 1
Hardness of feces: Normal (number of animals) (guinea pigs; [10]): 2
Hardness of feces: Slightly soft (number of animals) (guinea pigs; [10]): 0
Hardness of feces: Soft (number of animals) (guinea pigs; [10]): 2
Hardness of feces: Muddy (number of animals) (guinea pigs; [11]): 0
Hardness of feces: Normal (number of animals) (guinea pigs; [11]): 2
Hardness of feces: Slightly soft (number of animals) (guinea pigs; [11]): 0
Hardness of feces: Soft (number of animals) (guinea pigs; [11]): 3
Hardness of feces: Muddy (number of animals) (guinea pigs; [12]): 1
Hardness of feces: Normal (number of animals) (guinea pigs; [12]): 2
Hardness of feces: Slightly soft (number of animals) (guinea pigs; [12]): 2
Hardness of feces: Soft (number of animals) (guinea pigs; [12]): 3
Compound: O[C@@H]1CO[C@H]2[C@@H]1OC[C@@H]2O [Isosorbitol]
Regression line IR-S vs IR-L: Y-intercept ([2]; listed as IB alone): 7.143 and 6.542
Regression line IR-S vs IR-L: slope ([2]; listed as IB alone): 1.003 and 1.011
IR-L (%) increase ratio of the length of Reissner's membrane [2]: 31.3 ± 36.5%
IR-S (%) increase ratio of the cross-sectional area of the scala media [2]: 40.9 ± 38.2%
Time until exertion of effect after the oral administration (endolymphatic space): ~6 h

Hardness of feces 0 (Muddy): number of animals [3, 13]: 2 and 3
Hardness of feces 1 (Soft): number of animals [3, 13]: 2
Hardness of feces 3 (Normal): number of animals [3, 13]: 0
Compound: OC[C@@H](O)[C@@H](O)[C@H](O)[C@@H](O)CO [Sorbitol, sorbitol]

Hardness of feces: Muddy (number of animals) [3, 4]: 0
Hardness of feces: Normal (number of animals) [3, 4]: 5
Hardness of feces: Slightly soft (number of animals) [3, 4]: 0
Hardness of feces: Soft (number of animals) [3, 4]: 0
Hardness of feces: Muddy (number of animals) [3, 5]: 0
Hardness of feces: Normal (number of animals) [3, 5]: 4
Hardness of feces: Slightly soft (number of animals) [3, 5]: 1
Hardness of feces: Soft (number of animals) [3, 5]: 0
Time after administration when diarrhea / softening of feces started [3, 6]: 2 h
Time after administration when feces recovered to (almost) normal [3, 6]: 6 h
Hardness of feces: Muddy (number of animals) [3, 7]: 3
Hardness of feces: Normal (number of animals) [3, 7]: 0
Hardness of feces: Slightly soft (number of animals) [3, 7]: 1
Hardness of feces: Soft (number of animals) [3, 7]: 1
Compound: OC[C@@H](O)[C@H](O)[C@@H](O)CO [Xylitol, xylitol]
Time after administration of the peak (most serious) diarrhea [3, 6]: Three to four hours after the administration
Regression line IR-S vs IR-L: Y-intercept [2]: 2.371
Regression line IR-S vs IR-L: slope [2]: 1.208
IR-L (%) increase ratio of the length of Reissner's membrane [2]: 48.6 ± 40.3%
IR-S (%) increase ratio of the cross-sectional area of the scala media [2]: 60.1 ± 48.9%

Hardness of feces: Muddy (number of animals) [3, 7]: 1
Hardness of feces: Normal (number of animals) [3, 7]: 0
Hardness of feces: Slightly soft (number of animals) [3, 7]: 1
Hardness of feces: Soft (number of animals) [3, 7]: 3
Compound: O=C[C@H](O)[C@@H](O)[C@H](O)CO [Xylose, xylose]
Abdominal distension / gas by inspections and palpations [3, 6]: mild or moderate flatulence and distension
Regression line IR-S vs IR-L: Y-intercept [2]: 1.197
Regression line IR-S vs IR-L: slope [2]: 1.364
IR-L (%) increase ratio of the length of Reissner's membrane [2]: 29.7 ± 21.3%
IR-S (%) increase ratio of the cross-sectional area of the scala media [2]: 41.7 ± 30.1%

Hardness of feces 0 (Muddy): number of animals [3, 13]: 1
Hardness of feces 1 (Soft): number of animals [3, 13]: 2
Hardness of feces 2 (Slightly soft): number of animals [3, 13]: 1
Hardness of feces 3 (Normal): number of animals [3, 13]: 0
Compound: OC[C@@H](O)[C@@H](O)[C@H](O)[C@H](O)CO [mannitol]
